Experimental data published in article PMC5500904 (Clinical cancer research : an official journal of the …, 2016).
Like-named read-outs stand apart in the source and are kept apart here.

What was measured:
[1] = clinical; settings: human, in vivo; for Cmax: 150 mg; for AUC(0-t): AUC0–last
[2] = test system: patients with advanced solid tumors; settings: in vivo
[3] = in vivo
[4] = test system: advanced NSCLC; settings: cited from earlier work
[5] = test system: adrenocortical carcinoma; settings: cited from earlier work
[6] = test system: patients with solid tumors; settings: cited from earlier work; for antitumor activity as monotherapy: single agent, solid tumors
[7] = molecular target: IGF1R (Homo sapiens, UniProt P08069); test: Phosphorylation of IGF1R in PBMCs; assay type: in vivo
[8] = cited from earlier work
[9] = test system: metastatic CRC; settings: combined with everolimus; cited from earlier work

Sequence of IGF1R (P08069 31-1367): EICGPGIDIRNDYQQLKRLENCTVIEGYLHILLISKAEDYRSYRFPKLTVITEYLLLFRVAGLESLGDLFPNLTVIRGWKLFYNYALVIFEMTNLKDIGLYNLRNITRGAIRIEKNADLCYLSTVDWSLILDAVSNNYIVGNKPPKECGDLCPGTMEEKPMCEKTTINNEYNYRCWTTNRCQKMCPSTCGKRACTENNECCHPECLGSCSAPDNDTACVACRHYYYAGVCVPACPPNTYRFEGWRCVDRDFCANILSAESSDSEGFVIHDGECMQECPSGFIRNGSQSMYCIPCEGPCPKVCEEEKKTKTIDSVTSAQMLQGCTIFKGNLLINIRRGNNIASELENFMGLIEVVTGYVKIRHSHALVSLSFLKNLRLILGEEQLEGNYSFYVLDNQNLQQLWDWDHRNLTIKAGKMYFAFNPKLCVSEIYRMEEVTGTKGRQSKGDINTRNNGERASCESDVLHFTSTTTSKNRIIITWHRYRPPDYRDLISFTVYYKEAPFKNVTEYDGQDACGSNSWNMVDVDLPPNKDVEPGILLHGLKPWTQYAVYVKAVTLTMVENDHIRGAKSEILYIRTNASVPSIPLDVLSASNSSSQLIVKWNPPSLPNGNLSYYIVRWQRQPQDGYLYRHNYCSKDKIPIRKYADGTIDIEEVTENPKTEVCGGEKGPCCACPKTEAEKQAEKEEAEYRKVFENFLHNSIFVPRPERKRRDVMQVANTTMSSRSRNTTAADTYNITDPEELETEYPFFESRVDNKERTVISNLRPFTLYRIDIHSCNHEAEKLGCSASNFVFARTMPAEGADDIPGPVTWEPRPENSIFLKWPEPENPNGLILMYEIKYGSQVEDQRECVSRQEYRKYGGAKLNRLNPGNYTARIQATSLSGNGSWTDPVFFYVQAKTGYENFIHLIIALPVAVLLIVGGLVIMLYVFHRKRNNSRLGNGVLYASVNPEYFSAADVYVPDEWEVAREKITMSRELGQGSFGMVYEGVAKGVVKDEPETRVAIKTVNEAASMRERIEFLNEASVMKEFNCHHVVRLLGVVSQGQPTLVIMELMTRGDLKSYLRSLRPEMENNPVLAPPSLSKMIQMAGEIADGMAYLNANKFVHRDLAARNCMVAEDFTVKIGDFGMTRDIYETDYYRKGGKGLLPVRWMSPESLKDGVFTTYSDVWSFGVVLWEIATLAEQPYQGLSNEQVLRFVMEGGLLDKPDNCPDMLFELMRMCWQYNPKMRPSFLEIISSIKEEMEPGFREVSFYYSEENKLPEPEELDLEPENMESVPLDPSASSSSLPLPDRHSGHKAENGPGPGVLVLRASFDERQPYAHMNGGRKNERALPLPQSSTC

C#Cc1cccc(Nc2ncnc3cc(OCCOC)c(OCCOC)cc23)c1 [erlotinib, Erlotinib, reference compound]
Cmax [1]: 1280 ng/mL | AUC(0-t) [1]: 21100 ng·h/mL | Tmax [1]: 4.1 h | Erlotinib-related AE: diarrhea ([2]; human): 26% | Erlotinib-related AE: drug eruption ([2]; human): 74% | Erlotinib-related AE: dry skin ([2]; human): 26% | Erlotinib-related AE: pruritus ([2]; human): 26% | Erlotinib-related AEs ([2]; human): 84 % of patients | patients discontinuing for an event related only to the named treatment ([2]; human): 3 patients | Tmax ([3]; human): 4.1 (1.9–8.4) h

R1507: IGF1R antibody, evaluated with erlotinib in NSCLC
12-week progression-free survival rate ([4]; R1507 with erlotinib, patients with KRAS-mutant tumors): 36% | progression-free or overall survival versus erlotinib alone ([4]; R1507 with erlotinib, unselected patients): no progression-free survival or overall survival advantage | tolerability ([4]; in vivo): tolerable

C[C@]1(O)C[C@@H](c2nc(-c3ccc4ccc(-c5ccccc5)nc4c3)c3c(N)nccn32)C1 [linsitinib, Linsitinib]
concentration at 24 h [1]: ≤ 400 ng/mL | Cmax [1]: 2580 ng/mL | AUC(0-t) [1]: 17900 ng·h/mL | Tmax [1]: 3 h | overall survival versus placebo arm [5]: no difference in overall survival | patients with durable PR ([5]; linsitinib arm): 3 of 90 | QTc prolongation versus peak concentrations of linsitinib ([6]; another study, 600 mg dose, ref unpublished data): associated with peak concentrations | half-life [6]: 5 h | monotherapy MTD ([6]; continuous once daily dosing): 400 mg | monotherapy MTD ([6]; intermittent dosing): 600 mg | antitumor activity as monotherapy [6]: partial responses (PR) in melanoma and adrenocortical carcinoma | antitumor activity as monotherapy ([6]; listed as Linsitinib): induced partial responses in adrenocortical carcinoma and melanoma | monotherapy RP2D ([6]; twice daily, continuous): 150 mg | IGF1R phosphorylation in PBMCs ([7]; 2 to 24 hours after the first dose, 7 cases, S1–S3): substantially inhibited | IGF1R phosphorylation in PBMCs ([7]; later time points, intermittent S1 schedule): fluctuating receptor inhibition | IGF1R phosphorylation in PBMCs ([7]; later time points, ≥300 mg linsitinib daily in S2 and S3): persisting receptor inhibition | Linsitinib-related hyperglycemia at grade 2 ([2]; human): 2 | Linsitinib-related hyperglycemia at grade 3 ([2]; human): 3 cases | Treatment-related SAEs ([2]; human): 10 of 40 (25%) patients (%) | linsitinib-related AE: fatigue ([2]; human): 12% | linsitinib-related AE: nausea ([2]; human): 11% | linsitinib-related AE: prolonged QTc interval ([2]; human): 8% | linsitinib-related AE: vomiting ([2]; human): 8% | patients discontinuing for an event related only to the named treatment ([2]; human): 1 patients | thrombocytopenia and neutropenia [2]: not observed | Cmax and AUC from time zero to infinity versus dose [3]: increased in a dose-proportional manner | drug–drug interaction (pharmacokinetic) [3]: no significant drug–drug interaction effect | plasma level associated with preclinical activity [8]: ~ 1 μmol/L | clinical activity [9]: no evidence of clinical activity
